We go through one molecule from patent US20230381205A1, “COMPOSITIONS AND METHODS FOR TREATING NEURONAL DISORDERS WITH CANNABINOIDS” (INMED PHARMACEUTICALS INC., priority 2020, published 2023).

Molecules are shown by their SMILES.

Data set [1] relates to differentiated SH-SY5Y human neuronal cells. In words: MTT assay: cytotoxicity of the substance alone (primary screen, no added insult). Format: cell-based. Here is the method:
(§1) Cell Culture and Differentiation: The SH-SY5Y human neuronal cell line was derived from neuroblastoma established from a metastatic bone tumor (patient with neuroblastoma). The cells were maintained in DMEM:F12 culture medium supplemented with 10% FBS and 1% Antibiotic-Antimycotic penicillin/streptomycin (growth medium) at 37° C. in a humidified atmosphere of 5% CO2. To induce neuronal differentiation of SH-SY5Y cells, culture media was replaced by a growth medium containing Retinoic Acid (RA) for 4-5 days at 37° C. in a humidified atmosphere of 5% CO2.
(§2) Compounds and Dosing Formulations: Selected cannabinoids: CBD, CBDA, CBC, CBG, CBGA, CBN, CBND and Δ^9-THC were procured from Cayman Chemicals and TRC. Ethanol (100%) was used as the solvent to prepare 1 and 10 mM stock solutions. Treatment concentrations for CBGA were prepared at 0.5 μM, 1.5 μM, 5 μM, 10 μM, 15 μM, 20 μM. Treatment concentrations for CBD, CBDA, CBC, CBN, CBND and Δ^9-THC were prepared at 0.5, 1.5, 5 and for CBG at 0.5 μM, 1.5 μM, 5 μM, 10 μM, 15 μM. Treatments were prepared directly in the control medium (DMEM:F12+5% FBS+1% Antibiotic-Antimycotic) by using appropriate stock solutions.
(§3) Evaluation of Cytotoxicity and Neuroprotection: Evaluation of cannabinoids neuroprotection and cytotoxicity on differentiated SH-SY5Y human neuronal cells was carried out by MTT (3-(4,5-dimethylthiazol-2-yl)-2,5-diphenyltetrazolium bromide) assay. Initially, cannabinoid cytotoxicity and neuroprotection were evaluated in a primary screen assay without the presence of cytotoxicity inducing insult agents. […] The Retinoic Acid (RA) differentiated SH-SY5Y neuronal cells were seeded onto 96-well plates (10,000 cells/well) in DMEM:F12 complete medium. Cells were differentiated for 4-5 days in the presence of RA.
(§4) MTT Assay: For the MTT assay, differentiated SH-SY5Y neuronal cells were treated with cannabinoids at various concentrations for 72 hrs in the presence of STSR at 75 nM, 100 nM, 150 nM and 200 nM or for 24 hrs in the presence of […] at 5 μM, respectively and processed to determine cytotoxicity. Briefly, 5 mg/mL of methylthiazolyldiphenyl-tetrazolium bromide (Sigma-Aldrich) stock solution was prepared in PBS. Following treatment of SH-SY5Y neuronal cells with cannabinoids for 72 hrs, the cells were incubated with 20 μL of MTT stock solution in 200 μL DMEM for 2 hrs at 37° C. Following subsequent washes with PBS, 200 μL of isopropanol was added to each well. The resulting change in color from dissolving formazan salt was immediately quantified using a spectrophotometer (BMG Labtech) at a wavelength of 570 nm. […] The results are illustrated in FIGS. 1-7.
For orientation: Formazan colour is commonly taken as a measure of viable cells.

Data set [2] shares this test system. In words: MTT assay: neuroprotection from Staurosporin (STSR) induced cytotoxicity. It counts as cell-based. Here is the method:
as §1, §2, §3, §4

A further data set relates to CB1R. In words: Changes in CB1 receptor expression and translocation. It counts as cell-based. The conditions noted are these: CBGA 5 μM, 10 μM, dose-dependent; FIG. 11. An excerpt:
FIG. 11 Changes in receptor expression.

Another data set relates to MAP2. In words: Western blot of MAP2 neuritogenesis marker. Format: cell-based, human. The conditions noted are these: FIG. 15. The protocol:
FIG. 15 CBGA upregulates the expression of MAP2 neuritogenesis marker. […] Changes in prominent intracellular marker of neurite growth, microtubule-associated protein 2 (MAP2) was determined using western blot analysis. Histogram showing densitometric analysis of relative expression of MAP2. β-Actin was used as a loading control.
For Western blot analysis, control and the treated cells were harvested and lysed in cold lysis buffer (150 mM NaCl, 50 mM Tris-HCl, 1% Triton X-100, 0.1% SDS, 0.5% Sodium deoxycholate, and 1% protease-phosphatase inhibitor mixture). The supernatants were collected and protein concentrations were determined using Bio-Rad protein assay (Bio-Rad Laboratories). Whole cell lysates (10 μg) were subjected to 10% SDS-polyacrylamide electrophoresis and transferred to nitrocellulose membrane. The membranes were blocked with 5% skim milk in TBS-T (Tris-buffered saline with 0.05% Tween-20) for 1 h at RT and blotted overnight in the presence of monoclonal anti-mouse MAP2 (1:1000, Sigma, cat. no. M1406), Tau (1:1000, Invitrogen, cat. no. AHB0042), TUJI (1:5000, BioLegend, cat. no. MMS-435P), BAX (1:1000, Cell signaling, cat. no. 2772) and rabbit polyclonal total and phosphorylated BCL (1:1000, Cell signaling, antibodies #2827 and 2870). […]

Regarding `CCCCCc1cc(O)c(C/C=C(\C)CCC=C(C)C)c(O)c1C(=O)O` [CBGA, 3-[(2E)-3,7-dimethylocta-2,6-dienyl]-2,4-dihydroxy-6-pentylbenzoic acid], the “effect on survival in primary screen” value in data set [1] (1.5 μM, 5 μM and 15 μM, FIG. 1) was “pro-survival neuroprotective effect”. In addition, the “Cell Death (%) vs Vehicle Control” value in data set [1] (15 μM, pre-screen, FIG. 1) is recorded as “pro-survival”. For the same molecule, in data set [1] (CBGA alone up to 20 μM, FIG. 4), the “cell death under basal conditions” value is listed as “did not result in cell death” and the “cell proliferation under basal conditions” value was “induced dose-dependent cell proliferation”. Further, the “neuroprotection against STSR insult-induced cytotoxicity” value in data set [2] (0.5 μM to 20 μM with STSR 75 nM, FIG. 5) is recorded as “significant dose-dependent neuroprotection”. In addition, the “neuroprotection against STSR-induced cytotoxicity” value in data set [2] (0.5 μM, 1.5 μM and 5 μM with STSR 75 nM, 72 hrs, FIG. 3) was “significant neuroprotection”. The “Cell Death (%) vs STSR at 75 nM, significance” value in data set [2] (5 μM with STSR 75 nM, compared to STSR-alone, One-Way ANOVA, FIG. 3) is “Statistically significant neuroprotection”. In addition, the “protection from STSR induced cytotoxicity” value in data set [2] (5 μM, 10 μM and 15 μM with STSR 75 nM, FIG. 6) is on record as “protected”. Besides, the “Cell Death (%) vs STSR, significance” value in data set [2] (10 μM and 15 μM with STSR 75 nM, FIG. 6) was “Statistically significant neuroprotection”. The “CB1R expression and translocation” value with CB1R was “promotes translocation of CB1R to the Golgi apparatus”. Further, the “MAP2 expression, western blot” value with MAP2 (CBGA 10 μM alone) is reported as “increased the expression of MAP2”. In addition, the “MAP2 expression, western blot” value in the data set with MAP2 (CBGA 10 μM with Aβ) is given as “abrogates Aβ mediated downregulation of MAP2 expression”.
